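Compound exposure: 48 hours, 5 concentrations, 96-well plates. Abbreviation: GI50, concentration required for 50% inhibition of growth.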 Activity calls are given as the source filed them. Rule as the data show it: active = GI50 up to about 1.1 µM and inactive = higher.
What was measured:
Assay in all cases: NCI-60 cell line screen, 48 h
SNB-78 = system: SNB-78
KM-20L2 = system: KM-20L2
NCI-H522 = system: NCI-H522
NCI-H460 = system: NCI-H460
SF-268 = system: SF-268
UACC-257 = system: UACC-257
DMS-114 = system: DMS-114
RPMI-8226 = system: RPMI-8226
M19-MEL = system: M19-MEL
NCI/ADR-RES = system: NCI/ADR-RES
HT-29 = system: HT-29
DLD-1 = system: DLD-1
A498 = system: A498
HOP-62 = system: HOP-62
MDA-MB-435 = system: MDA-MB-435
T47D = system: T47D
BT-549 = system: BT-549
PC-3 = system: PC-3
DU-145 = system: DU-145
MDA-N = system: MDA-N

Row | Structure (SMILES) | GI50 (SNB-78) | GI50 (KM-20L2) | GI50 (NCI-H522) | GI50 (NCI-H460) | GI50 (SF-268) | GI50 (UACC-257) | GI50 (DMS-114) | GI50 (RPMI-8226) | GI50 (M19-MEL) | GI50 (NCI/ADR-RES) | GI50 (HT-29) | GI50 (DLD-1) | GI50 (A498) | GI50 (HOP-62) | GI50 (MDA-MB-435) | GI50 (T47D) | GI50 (BT-549) | GI50 (PC-3) | GI50 (DU-145) | GI50 (MDA-N)
1 | O=C1c2ccccc2C(O)(C(=O)O)C1(O)CC=C(Cl)Cl (configuration not stated) | > 125 µM (inactive) | > 125 µM (inactive) | > 125 µM (inactive) | > 125 µM (inactive) | > 125 µM (inactive) | > 125 µM (inactive) | > 125 µM (inactive) | > 125 µM (inactive) | > 125 µM (inactive) | > 125 µM (inactive) | > 125 µM (inactive) | > 125 µM (inactive) | > 125 µM (inactive) | > 125 µM (inactive) | – | – | – | – | – | –
2 | O=C(CC1Sc2ccccc2NC1=O)Nc1ccc(Cl)cc1 (configuration not stated) | > 100 µM (inactive) | 89.1 µM (inactive) | > 100 µM (inactive) | > 100 µM (inactive) | 38.5 µM (inactive) | > 100 µM (inactive) | 48.4 µM (inactive) | > 100 µM (inactive) | > 100 µM (inactive) | – | > 100 µM (inactive) | > 100 µM (inactive) | > 100 µM (inactive) | > 100 µM (inactive) | – | – | – | – | – | –
3 | COC(=O)C1Cc2c([nH]c3ccccc23)C=N1 (configuration not stated) | > 100 µM (inactive) | > 100 µM (inactive) | > 100 µM (inactive) | > 100 µM (inactive) | > 100 µM (inactive) | > 100 µM (inactive) | > 100 µM (inactive) | > 100 µM (inactive) | 74.8 µM (inactive) | – | > 100 µM (inactive) | > 100 µM (inactive) | > 100 µM (inactive) | > 100 µM (inactive) | – | – | – | – | – | –
4 | CS(=O)(=O)OCCCNCCCOS(C)(=O)=O | 2100 µM (inactive) | 1990 µM (inactive) | 1850 µM (inactive) | 156 µM (inactive) | 879 µM (inactive) | 1850 µM (inactive) | 849 µM (inactive) | 1310 µM (inactive) | 1580 µM (inactive) | 1600 µM (inactive) | 1210 µM (inactive) | 2810 µM (inactive) | 1330 µM (inactive) | 729 µM (inactive) | 2340 µM (inactive) | 573 µM (inactive) | 1270 µM (inactive) | 1270 µM (inactive) | 627 µM (inactive) | 2350 µM (inactive)
5 | OCCN1CCN(CCO)Cc2ccccc2OCCOc2ccccc2C1 | > 100 µM (inactive) | > 100 µM (inactive) | > 100 µM (inactive) | > 100 µM (inactive) | > 100 µM (inactive) | > 100 µM (inactive) | > 100 µM (inactive) | > 100 µM (inactive) | > 100 µM (inactive) | – | 96.8 µM (inactive) | > 100 µM (inactive) | > 100 µM (inactive) | > 100 µM (inactive) | – | – | – | – | – | –
6 | CC1CC(C)(O)C2C3(C)CCCC2(COC3=O)C12CCC1(CCOC1=O)O2 (configuration not stated) | > 250 µM (inactive) | > 250 µM (inactive) | > 250 µM (inactive) | > 250 µM (inactive) | > 250 µM (inactive) | > 250 µM (inactive) | > 250 µM (inactive) | > 250 µM (inactive) | > 250 µM (inactive) | > 250 µM (inactive) | > 250 µM (inactive) | > 250 µM (inactive) | > 163 µM (inactive) | > 250 µM (inactive) | – | – | – | – | – | –
7 | COc1ccc(C(=O)C(C(=O)C(=O)NC2C3CC4CC(C3)CC2C4)c2ccc(OC)cc2)cc1 (configuration not stated) | > 100 µM (inactive) | > 100 µM (inactive) | > 100 µM (inactive) | > 100 µM (inactive) | > 100 µM (inactive) | > 100 µM (inactive) | > 100 µM (inactive) | > 100 µM (inactive) | > 100 µM (inactive) | – | > 100 µM (inactive) | > 100 µM (inactive) | > 100 µM (inactive) | > 100 µM (inactive) | – | – | – | – | – | –
8 | CC12CC3CC(C1)CC(N=[N+]=[N-])(C3)C2 | > 100 µM (inactive) | > 100 µM (inactive) | > 100 µM (inactive) | > 100 µM (inactive) | – | > 100 µM (inactive) | > 100 µM (inactive) | > 100 µM (inactive) | > 100 µM (inactive) | – | > 100 µM (inactive) | > 100 µM (inactive) | > 100 µM (inactive) | > 100 µM (inactive) | – | – | – | – | – | –
9 | C/C=C(\C)C(=O)OC1C2C(C)=CC(=O)C(O)C2(C)C2C3(O)OCC24C1OC(=O)C(OC(C)=O)C4C(C)C3O (configuration not stated) | 0.0483 µM (active) | 0.0471 µM (active) | – | 0.0375 µM (active) | 0.0444 µM (active) | 0.0375 µM (active) | 0.0375 µM (active) | 0.0375 µM (active) | 0.0375 µM (active) | 1.05 µM (active) | 0.0385 µM (active) | 0.0375 µM (active) | 0.0611 µM (active) | 0.0375 µM (active) | – | – | – | – | – | –
10 | CC1(C)N=C(N)N=C(N)N1c1ccc(CCc2ccccc2)cc1 | 13.6 µM (inactive) | 1.16 µM (inactive) | 3.03 µM (inactive) | 0.508 µM (active) | 0.618 µM (active) | 2.96 µM (inactive) | 0.647 µM (active) | 17.4 µM (inactive) | 2.84 µM (inactive) | > 100 µM (inactive) | 0.565 µM (active) | 15.7 µM (inactive) | – | – | – | – | – | – | – | –
11 | C=CC1(C)CCC2=C(CCC3C(C)(C(=O)OC)CCCC23C)C1=O (configuration not stated) | 18.8 µM (inactive) | 21.3 µM (inactive) | 15.1 µM (inactive) | 18.3 µM (inactive) | 18.7 µM (inactive) | 22.8 µM (inactive) | 15.3 µM (inactive) | 21.7 µM (inactive) | 18.7 µM (inactive) | – | 17 µM (inactive) | 18.5 µM (inactive) | 14.8 µM (inactive) | 16.8 µM (inactive) | – | – | – | – | – | –
12 | CC(C)CCCC(C)[C@H]1CCC(C2C[C@@H](O)[C@@H]3CC(O)[C@@H](O)C[C@]3(CO)C2=O)[C@]1(C)CCO (some centres not stated) | 32.7 µM (inactive) | 20 µM (inactive) | 26.3 µM (inactive) | 21.8 µM (inactive) | 25 µM (inactive) | 20 µM (inactive) | 20.6 µM (inactive) | 27.1 µM (inactive) | 21 µM (inactive) | 37.6 µM (inactive) | 19.5 µM (inactive) | 31.7 µM (inactive) | 25.6 µM (inactive) | 23.9 µM (inactive) | – | – | – | – | – | –
13 | Cc1c2ccncc2c(C)c2c1[nH]c1ccccc12 [ELLIPTECINE] | 1.48 µM (inactive) | 0.548 µM (active) | 1.16 µM (inactive) | 0.15 µM (active) | 0.698 µM (active) | 1.42 µM (inactive) | 0.94 µM (active) | 0.617 µM (active) | 0.857 µM (active) | 0.659 µM (active) | 0.863 µM (active) | 0.509 µM (active) | 0.794 µM (active) | 0.818 µM (active) | – | – | – | – | – | –
14 | CC(C)c1oc(=O)cc2c1C(O)C1OC(=O)C3(C)C(O)C4OC4C2(C)C13 (configuration not stated) [NAGILACTONE] | 6.25 µM (inactive) | 1.63 µM (inactive) | 1.15 µM (inactive) | 0.733 µM (active) | 4.09 µM (inactive) | 1.83 µM (inactive) | 1.13 µM (inactive) | 1.1 µM (active) | 1.26 µM (inactive) | 12.9 µM (inactive) | 1.69 µM (inactive) | 1.23 µM (inactive) | 0.569 µM (active) | 2.15 µM (inactive) | – | – | – | – | – | –
